The text below walks through data of patent US7919484B2, “Combination therapy” (Xenon Pharmaceuticals Inc., priority 2005, dated 2011).

Series [1] addresses T1, SCD (Homo sapiens, UniProt O00767).
T1 sequence (O00767 1-359): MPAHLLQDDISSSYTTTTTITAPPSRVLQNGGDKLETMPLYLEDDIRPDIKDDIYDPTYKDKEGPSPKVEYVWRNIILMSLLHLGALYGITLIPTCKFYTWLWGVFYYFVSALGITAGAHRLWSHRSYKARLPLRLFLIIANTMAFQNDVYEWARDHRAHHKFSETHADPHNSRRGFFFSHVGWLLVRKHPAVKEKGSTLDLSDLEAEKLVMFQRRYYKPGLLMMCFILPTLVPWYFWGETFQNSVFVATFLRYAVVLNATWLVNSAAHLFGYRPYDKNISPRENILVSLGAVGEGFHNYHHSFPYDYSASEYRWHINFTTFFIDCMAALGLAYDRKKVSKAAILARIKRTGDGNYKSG
The settings on record: known from the art; cited from earlier work.

Series [2] can be described thus: Effect of SCD-1 inhibitor and rosiglitazone co-administration on body weight in ZDF rats (Example 1). The series is classed as in vivo, Male Zucker Diabetic Fatty Rats (ZDF). The settings on record: mean +/- SEM, Rosi 10 mg/kg, XEN103 5 mg/kg daily po; for Final Body Weight: end of treatment. As for the experimental part:
Male Zucker Diabetic Fatty Rats (ZDF) began treatment at the age of 7 weeks of age. Animals were housed three to a cage in a temperature, humidity and light controlled room. The animals were fed a standard rodent diet and had free access to water. Animals were randomized into groups of 9 and placed in the following experimental groups for daily dosing (10:30 am) as described in table 5 below. Animals were weighed three times per week. Food intake was recorded three times per week. XEN 1 is a representative SCD-1 inhibitor compound of the invention. The formulations were: • Vehicle=1% CMC:0.1% Tween 20:10% PG • Rosi-10=rosiglitazone 10 mg/kg in 1% CMC:0.1% Tween 20:10% PG • Rosi-10+XEN1=rosiglitazone 10 mg/kg+XEN1 5 mg/kg in 1% CMC:0.1% Tween 20:10% PG • XEN1=XEN1 5 mg/kg in 1% CMC:0.1% Tween 20:10% PG

The target in series [3] is T2, SCD enzyme (Rattus norvegicus, UniProt P07308).
T2 construct: indicator of endogenous SCD1 activity; from tissue; host or cells: living male Zucker Diabetic Fatty rats, dosed orally
T2 sequence (P07308 1-358): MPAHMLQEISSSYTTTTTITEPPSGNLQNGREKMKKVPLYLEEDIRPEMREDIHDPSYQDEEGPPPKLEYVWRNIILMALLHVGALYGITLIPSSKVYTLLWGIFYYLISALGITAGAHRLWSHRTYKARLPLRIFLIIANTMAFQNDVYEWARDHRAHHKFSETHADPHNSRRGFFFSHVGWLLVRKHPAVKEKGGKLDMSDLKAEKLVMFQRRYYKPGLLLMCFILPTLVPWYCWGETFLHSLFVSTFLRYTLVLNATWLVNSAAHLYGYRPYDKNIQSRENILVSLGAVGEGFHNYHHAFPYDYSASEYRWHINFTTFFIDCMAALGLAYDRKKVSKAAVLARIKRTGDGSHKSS
The experiment in a line: Plasma desaturation index (DI) in ZDF rats after treatment (Example 2). The series is classed as in vivo. The settings on record: plasma triglycerides, mean +/- standard deviation, rosiglitazone 10 mg/kg, XEN1 5 mg/kg.
Source text: Another suitable method is to indirectly measure the SCD-1 inhibitors impact on inhibition of SCD enzyme by measuring a subject's desaturation index (‘DI’) after administration of the SCD-1 inhibitors. DI as employed in this specification means the ratio of the product over the substrate for the SCD enzyme as measured from a given tissue sample. This may be calculated using three different equations 18:1n−9/18:0 (oleic acid over stearic acid); 16:1n−7/16:0 (palmitoleic acid over palmitic acid); and/or 16:1n−7+18:1n−7/16:0 (measuring all reaction products of 16:0 desaturation over 16:0 substrate). DI is primarily measured in liver or plasma triglycerides, but may also be measured in other selected lipid fractions from a variety of tissues.
Desaturation indexes were calculated from the fatty acid profile of circulating plasma triglycerides. […] An additional 0.5 mL of chloroform containing 0.05 mg/mL of glyceryl-triheptadecanoin as an internal standard were also added. Samples were thoroughly vortexed and the phases separated by centrifugation at 2000 rpm for 8 minutes. […]
3 desaturation indexes were calculated from the chromatograms based on absolute peak areas; the ratio of palmitoleic acid to palmitic acid (C16:1n7/C16:0), the ratio of oleic acid to stearic acid (C18:1n9/C18:0) and the ratio of palmitoleic acid and vaccenic acid to palmitic acid (C16:1n7+C18:1n7/C16:0).

For series [4] the following is noted: cited from earlier work.

In the case of `CCCCCCCCC1=C(CCCCCCCC(=O)O)C1` [Sterculic acid, 8-(2-octylcyclopropenyl)octanoic acid], in series [1], the “Inhibition of SCD activity (in words)” value is listed as “non-specifically inhibit SCD activity”.

Consider `O=C(NCCC1CC1)c1ccc(N2CCN(C(=O)c3cc(F)ccc3C(F)(F)F)CC2)nn1` [XEN 1], for which, in series [2], the “Final Body Weight” value is 312.2 ± 5.1 g and the “Body Weight Gain - 5 week treatment” value amounted to 150.7 ± 3.5 g. In series [3], the “Plasma desaturation index (DI) C16:1n7/C16:0” value is on record as 0.043 +/− 0.004 and the “Plasma desaturation index (DI) C18:1n9/C18:0” value was 5.874 +/− 0.422.

On to `CCCCCCCCC1=C(CCCCCCC(=O)O)C1` [malvalic acid, 7-(2-octylcyclopropenyl)heptanoic acid], for which, in series [1], the “Inhibition of SCD activity (in words)” value is given as “non-specifically inhibit SCD activity”.

Turning to `CN(CCOc1ccc(CC2SC(=O)NC2=O)cc1)c1ccccn1` (centres unmarked) [rosiglitazone], in series [2], the “Final Body Weight” value was 485.3 ± 7.3 g and the “Body Weight Gain - 5 week treatment” value worked out at 321.9 ± 6.5 g. In addition, the “Weight gain associated with low-dose treatment” value in series [4] (4 mg/day, after one year treatment) is “about 8 kg/year”.

As to `N[C@@H]1C[C@H]1c1ccccc1` (racemic) [Tranylcypromine], in series [4] (human, in vivo), the “Side Effect (in words)” value is “Adverse weight”.

Take `CC(=O)O[C@]1(C(C)=O)CC[C@H]2[C@@H]3C[C@H](C)C4=CC(=O)CC[C@]4(C)[C@H]3CC[C@@]21C` [medroxyprogesterone acetate]: the “Side Effect: increase in body weight” value in series [4] (6 months) is reported as 6.2% increase in.
